# Experimental data from publication PMC8533202, “Design of Inhibitors of the Intrinsically Disordered Protein NUPR1: Balance between Drug Affinity and Target Function” (Biomolecules, 2021).
# Columns and labels:
# NUPR1 = target: T1, NUPR1 (Homo sapiens, UniProt O60356); test: Isothermal titration calorimetry (ITC) binding to NUPR1; details: 25 °C; for N (stoichiometry) / ΔG / ΔH / −TΔS: pH 7.0; for Ka / Kd: sodium phosphate 20 mM, pH 7.0, 2% DMSO; for Kd: read-out: Kd (=1/Ka)
# T1 construct: made in house
# T1 sequence (O60356 1-82): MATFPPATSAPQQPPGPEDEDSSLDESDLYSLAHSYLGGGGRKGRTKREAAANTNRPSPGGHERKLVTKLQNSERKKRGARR
# Procedure: The binding of the ZZW-115-derived compounds to NUPR1 was determined as described by using a high sensitivity isothermal titration calorimeter Auto-iTC200 (MicroCal, Malvern-Panalytical, Malvern, UK). Protein samples and solutions were properly degassed. Experiments were performed with freshly prepared protein solutions at 25 °C. A solution of NUPR1 (20 μM, in sodium phosphate 20 mM, pH 7.0, 2% DMSO) in the calorimetric cell was titrated with a solution of each compound (200 μM, in sodium phosphate 20 mM pH 7.0, 2% DMSO). The inhibitors were dissolved in the same buffer used for the protein. A standard protocol was employed: 19 titrant injections with 2 μL compound solution were programmed with a time spacing of 150 s, a stirring speed of 750 rpm, and a reference power of 10 μcal/s. The heat evolved after each ligand injection was calculated from the integral of the calorimetric signal. The heat due to the binding reaction was obtained as the difference between the reaction heat and the corresponding heat of injection, the latter estimated as a constant value throughout the experiment, and included as an adjustable parameter in the analysis. Control experiments (with the compounds injected into the buffer) were performed under the same experimental conditions.
# The association constant (Ka), the enthalpy change (ΔH) and the stoichiometry (n) of the binding reaction were obtained through nonlinear regression analysis of experimental data to a model assuming a single ligand binding site for the protein. Experiments were performed in replicate and data were analyzed using in-house-developed software implemented in Origin 7 (OriginLab).
# The interaction between ZZW-115-Derived compounds and NUPR1 was studied by using ITC, the gold-standard technique in binding-affinity determination, to test our theoretical prediction. […] From the thermogram (thermal power as a function of time), the binding isotherm (ligand-normalized heat as a function of the molar ratio) was obtained through integration of the individual heat effect associated with injection of each ligand solution (Figure 3). We used a nonlinear least-squares regression analysis employing a model that considered a single binding site in NUPR1 to estimate binding parameters such as the dissociation constant and the binding enthalpy.
# PDAC089T cells = test: Cell viability assay (PrestoBlue); type: cell-based; details: Homo sapiens; PDAC089T (derived from a liver metastasis), 72 h
# From the text: (§1) Primary pancreatic cancer cells PDAC001T, PDAC012T, PDAC021T, PDAC081T, PDAC082T, PDAC087T, PDAC088T, PDAC089T, and PDAC115T were obtained from the PaCaOmics clinical trial registered at www.clinicaltrials.gov (accessed on 2 October 2021) with registration number NCT01692873. We included PDAC samples from both echoendoscopic ultrasound-guided fine-needle (EUS-FNA) biopsies for patients with unresectable tumors and from surgical specimens for patients undergoing surgery. The tumor samples of these patients were used to generate patient-derived xenograft in nude mice as previously reported. Xenografts obtained from mice were split into several small pieces and used for cell culture in a biosafety chamber: after fine mincing, they were treated with collagenase type V (ref C9263; Sigma-Aldrich, St. Louis, MO, USA) and trypsin/EDTA (ref 25200-056; Gibco, Life Technologies, Grand Island, NY, USA) and were suspended in Dulbecco’s modified Eagle’s medium supplemented with 1% w/w penicillin/streptomycin (Gibco, Life Technologies, Paisley, UK) and 10% fetal bovine serum (Lonza Inc., Walkersville, MD, USA). After centrifugation, cells were resuspended in serum-free ductal media adapted from Schreiber et al. at 37 °C in a 5% CO2 incubator. Amplified cells were stored in liquid nitrogen as previously reported. Cells were weaned from antibiotics for ≥48 h before testing.
# (§2) Cell viability was evaluated in ten pancreatic cancer cell lines, including MiaPaCa-2, and nine primary pancreatic cancer-derived cell lines: PDAC001T, PDAC012T, PDAC021T, PDAC081T, PDAC082T, PDAC087T, PDAC088T, PDAC089T, and PDAC115T. MiaPaCa-2 cells were obtained from ATCC (Manassas, VA, USA) and maintained in DMEM (Invitrogen, Cergy-Pontoise, France), supplemented with 10% […] at 37 °C with 5% CO2. The primary pancreatic cancer-derived cells were cultured in serum free ductal media (SFDM) following a procedure adapted from those previously described, without antibiotic, and incubated at 37 °C in a 5% CO2 incubator. Cells were plated in 96-well plates (5000 cells/well) overnight. Then, the media were supplemented with the compounds to be tested at 0–100 µM concentration, and the samples were incubated for another additional 72 h before performing the measurement. Cell viability was estimated after addition of PrestoBlue™ reagent (Life Technologies, Paris, France) for 3 h according to the PrestoBlue™ cell viability reagent protocol provided by the supplier. Cell viability was normalized when comparing to untreated cell rates. Experiments were performed in triplicate and each set was repeated three times, with similar results.
# PDAC012T cells = test: Cell viability assay (PrestoBlue); type: cell-based; details: Homo sapiens; PDAC012T (classical subtype), 72 h
# From the text: as §1, §2
# PDAC088T cells = test: Cell viability assay (PrestoBlue); type: cell-based; details: Homo sapiens; PDAC088T (classical subtype), 72 h
# From the text: as §1, §2
# PDAC115T cells = test: Cell viability assay (PrestoBlue); type: cell-based; details: Homo sapiens; PDAC115T (basal subtype), 72 h
# From the text: as §1, §2
# PDAC021T cells = test: Cell viability assay (PrestoBlue); type: cell-based; details: Homo sapiens; PDAC021T (basal subtype), 72 h
# From the text: as §1, §2
# PDAC082T cells = test: Cell viability assay (PrestoBlue); type: cell-based; details: Homo sapiens; PDAC082T (classical subtype), 72 h
# From the text: as §1, §2
# PDAC081T cells = test: Cell viability assay (PrestoBlue); type: cell-based; details: Homo sapiens; PDAC081T (classical subtype), 72 h
# From the text: as §1, §2
# PDAC087T cells = test: Cell viability assay (PrestoBlue); type: cell-based; details: Homo sapiens; PDAC087T (basal subtype), 72 h
# From the text: as §1, §2
# PDAC001T cells = test: Cell viability assay (PrestoBlue); type: cell-based; details: Homo sapiens; PDAC001T (basal subtype), 72 h
# From the text: as §1, §2
# MiaPaCa-2 cells = test: Cell viability assay (PrestoBlue); type: cell-based, human; details: Homo sapiens, MIA PaCa-2, 72 h, MiaPaCa-2, 72 h
# Procedure: as §2
SMILES,N (stoichiometry) (NUPR1),ΔG (NUPR1),ΔH (NUPR1),−TΔS (NUPR1),Ka (NUPR1),Kd (NUPR1),IC50 (PDAC089T cells),IC50 (PDAC012T cells),IC50 (PDAC088T cells),IC50 (PDAC115T cells),IC50 (PDAC021T cells),IC50 (PDAC082T cells),IC50 (PDAC081T cells),IC50 (PDAC087T cells),IC50 (PDAC001T cells),IC50 (MiaPaCa-2 cells)
CCN(CC)CCN1CCN(CCCN2c3ccccc3Sc3ccc(C(F)(F)F)cc32)CC1 [ZZW-129],1.2 ± 0.1,−7.5 ± 0.1 kcal mol^–1,−0.7 ± 0.4 kcal mol^–1,−6.8 ± 0.4 kcal mol^–1,3.1 ± 0.3 M^–1 × 10^5,3.2 ± 0.3 µM,7.9 µM,2.77 µM,7.28 µM,2.46 µM,3.41 µM,3.56 µM,0.86 µM,4.28 µM,1.94 µM,0.33 µM
FC(F)(F)c1ccc2c(c1)N(CCCN1CCN(CCN3CCCC3)CC1)c1ccccc1S2 [ZZW-130],1.4 ± 0.1,−7.9 ± 0.1 kcal mol^–1,0.3 ± 0.3 kcal mol^–1,−8.2 ± 0.3 kcal mol^–1,6.4 ± 0.4 M^–1 × 10^5,1.6 ± 0.1 µM,6.03 µM,4.18 µM,6.75 µM,2.91 µM,3.81 µM,4.33 µM,1.12 µM,4.95 µM,2.45 µM,0.35 µM
FC(F)(F)c1ccc2c(c1)N(CCCN1CCN(CCN3CCCCC3)CC1)c1ccccc1S2 [ZZW-131],0.8 ± 0.1,−7.7 ± 0.1 kcal mol^–1,0.5 ± 0.3 kcal mol^–1,−8.2 ± 0.3 kcal mol^–1,4.7 ± 0.3 M^–1 × 10^5,2.1 ± 0.1 µM,10.6 µM,5.25 µM,8.11 µM,5.75 µM,6.47 µM,6.49 µM,0.97 µM,4.43 µM,3.98 µM,0.3 µM
CCN(CC)CCCN1CCN(CCCN2c3ccccc3Sc3ccc(C(F)(F)F)cc32)CC1 [ZZW-143],1.2 ± 0.1,−6.4 ± 0.1 kcal mol^–1,0.8 ± 0.4 kcal mol^–1,−7.2 ± 0.4 kcal mol^–1,0.5 ± 0.1 M^–1 × 10^5,20 ± 4 µM,6.12 µM,2.18 µM,5.94 µM,2.5 µM,2.57 µM,3.55 µM,0.97 µM,2.22 µM,2.31 µM,0.29 µM
FC(F)(F)c1ccc2c(c1)N(CCCN1CCN(CCCN3CCCC3)CC1)c1ccccc1S2 [ZZW-144],1.2 ± 0.1,−6.7 ± 0.1 kcal mol^–1,0.5 ± 0.5 kcal mol^–1,−7.2 ± 0.5 kcal mol^–1,0.85 ± 0.8 M^–1 × 10^5,12 ± 1 µM,8.38 µM,2.51 µM,5.8 µM,3.22 µM,3.69 µM,3.04 µM,0.98 µM,3.57 µM,2.51 µM,0.26 µM
FC(F)(F)c1ccc2c(c1)N(CCCN1CCN(CCCN3CCCCC3)CC1)c1ccccc1S2 [ZZW-145],1.2 ± 0.1,−6.7 ± 0.1 kcal mol^–1,0.7 ± 0.5 kcal mol^–1,−7.4 ± 0.5 kcal mol^–1,0.82 ± 0.9 M^–1 × 10^5,11 ± 1 µM,6.22 µM,2.36 µM,5 µM,2.44 µM,2.33 µM,2.33 µM,0.78 µM,2.37 µM,2.36 µM,0.19 µM
FC(F)(F)c1ccc2c(c1)N(CCCN1CCN(CCCN3CCOCC3)CC1)c1ccccc1S2 [ZZW-148],1.2 ± 0.1,−6.8 ± 0.1 kcal mol^–1,0.7 ± 0.5 kcal mol^–1,−7.5 ± 0.5 kcal mol^–1,1.0 ± 0.1 M^–1 × 10^5,9.6 ± 1 µM,14.8 µM,3.7 µM,10.7 µM,4.37 µM,4.35 µM,4.1 µM,1.11 µM,6.57 µM,3.75 µM,0.47 µM
